Positions of bridges follow the written chain, without caps; N, C: chain ends. Non-standard residues stand in square brackets, D forms with d. Residues, ends and D or L forms follow the SMILES beside them. *: point of attachment. hPhe(3-Cl-4-CF3) = N[C@@H](CCc1ccc(C(F)(F)F)c(Cl)c1)C(=O)O; hPhe(4-CF3) = N[C@@H](CCc1ccc(C(F)(F)F)cc1)C(=O)O; Pro(cis-4-Ph) = O=C(O)[C@@H]1C[C@H](c2ccccc2)CN1; NMePhe(4-Cl) = CN[C@@H](Cc1ccc(Cl)cc1)C(=O)O; NMePhe(3-Me) = CN[C@@H](Cc1cccc(C)c1)C(=O)O; NMePhe(4-Me) = CN[C@@H](Cc1ccc(C)cc1)C(=O)O; NMeMet(O2) = CN[C@@H](CCS(C)(=O)=O)C(=O)O; hNle(7,7-F2) = N[C@@H](CCCCC(F)F)C(=O)O; NMeGly(cPent) = CN[C@H](C(=O)O)C1CCCC1; Phe(2-OMe) = COc1ccccc1C[C@H](N)C(=O)O; Phe(3-I) = N[C@@H](Cc1cccc(I)c1)C(=O)O; Pip(4-oxo) = O=C1CCN[C@H](C(=O)O)C1; NMeCha = CN[C@@H](CC1CCCCC1)C(=O)O; NMeChg = CN[C@H](C(=O)O)C1CCCCC1; NMeF = CN[C@@H](Cc1ccccc1)C(=O)O; NMeT = CN[C@H](C(=O)O)[C@@H](C)O; NMeD = CN[C@@H](CC(=O)O)C(=O)O; NMeL = CN[C@@H](CC(C)C)C(=O)O; d(β3hA) = C[C@@H](N)CC(=O)O; Pip = O=C(O)[C@@H]1CCCCN1; NMeA = CN[C@@H](C)C(=O)O; NMeAib = CNC(C)(C)C(=O)O; Piperidide = C1CCN(*)CC1; Pyrrolidide = C1CCN(*)C1; dNMeA = CN[C@H](C)C(=O)O; Ac5c = NC1(C(=O)O)CCCC1; Sar = CNCC(=O)O

These results are taken from patent US12371454B2, “Cyclic peptide compound having Kras inhibitory action” (priority 2019, dated 2025).

The target of the assay is T1, Kras and SOS1 (biotin-tagged human Kras loaded with GDP, His-tagged human SOS1) (Homo sapiens, UniProt P01116, G12D).
T1 construct: made in house; host or cells: E. coli (stated for Kras only)
T1 sequence (P01116 1-188 isoform P01116-2 G12D): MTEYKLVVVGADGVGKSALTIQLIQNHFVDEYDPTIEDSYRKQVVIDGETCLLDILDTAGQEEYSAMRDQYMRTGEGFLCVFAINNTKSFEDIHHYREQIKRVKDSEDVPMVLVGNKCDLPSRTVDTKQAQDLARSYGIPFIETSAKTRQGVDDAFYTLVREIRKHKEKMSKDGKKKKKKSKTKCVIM
As to the kind of experiment: Protein-protein interaction inhibition between Kras and SOS1 (KrasGl2D-SOS PPI) using AlphaScreen. The class given is binding. As to conditions: AlphaScreen; biotin-tagged human Kras loaded with GDP, His-tagged human SOS1; read-out: KRAS G12D-SOS PPI IC50. The gist of the method: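 Energy transfer from nickel-chelate donor beads bound to His-SOS1 to streptavidin acceptor beads bound to biotin-Kras, expressed in E. coli and loaded with GDP after purification, was monitored. Donors were excited at 680 nm; singlet oxygen reaching acceptors gave emission read at 520-620 nm.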
For orientation: In Alpha technology, singlet oxygen from a donor bead excites a nearby acceptor bead.
What is called IC50 is the concentration needed to halve the response being measured. For the compound `CC[C@H](C)[C@@H]1NC(=O)[C@H](C)N(C)C(=O)C[C@@H](C)NC(=O)[C@H](C2CCCC2)N(C)C(=O)C2(CCCC2)NC(=O)[C@@H]2CCCN2C(=O)[C@H](CCc2ccc(C(F)(F)F)c(Cl)c2)NC(=O)[C@@H](C)N(C)C(=O)[C@H](Cc2cccc(C)c2)N(C)C(=O)CN(C)C(=O)CN(C)C1=O` [Compound 1088] (cyclo([Ac5c][NMeGly(cPent)][d(β3hA)][NMeA]I[Sar][Sar][NMePhe(3-Me)][dNMeA][hPhe(3-Cl-4-CF3)]P)), the IC50 came to 170 nM.

As to `CC[C@H](C)[C@@H]1NC(=O)[C@H](CC(C)C)N(C)C(=O)C[C@@H](C(=O)N2CCCCC2)N(C)C(=O)[C@H](C2CCCCC2)N(C)C(=O)C2(CCCC2)NC(=O)[C@@H]2CC(=O)CCN2C(=O)[C@H](CCc2ccc(C(F)(F)F)c(Cl)c2)NC(=O)CN(C)C(=O)[C@H](CC2CCCCC2)N(C)C(=O)CN(C)C(=O)CN(C)C1=O` [Compound 1089] ([NMeL]I[Sar][Sar][NMeCha][Sar][hPhe(3-Cl-4-CF3)][Pip(4-oxo)][Ac5c][NMeChg][NMeD]-Piperidide; lactam N-11), the IC50 was found to be 1.6 nM.

Take `CC[C@H](C)[C@@H]1NC(=O)[C@H](C)N(C)C(=O)C[C@@H](C)NC(=O)[C@H](CC(C)C)N(C)C(=O)C2(CCCC2)NC(=O)[C@@H]2CCCN2C(=O)[C@H](CCc2ccc(C(F)(F)F)cc2)NC(=O)CN(C)C(=O)[C@H](CC2CCCCC2)N(C)C(=O)CN(C)C(=O)CN(C)C1=O` [Compound 1090] (cyclo([Ac5c][NMeL][d(β3hA)][NMeA]I[Sar][Sar][NMeCha][Sar][hPhe(4-CF3)]P)): the IC50 was 88 nM.

As for `CC[C@H](C)[C@@H]1NC(=O)[C@H](C)N(C)C(=O)C[C@@H](C(=O)N2CCCC2)NC(=O)[C@H](CC(C)C)N(C)C(=O)[C@H](Cc2ccccc2)N(C)C(=O)[C@H](CCCCC(F)F)NC(=O)[C@H](CCc2ccc(C(F)(F)F)cc2)NC(=O)CN(C)C(=O)[C@H](Cc2ccc(Cl)cc2)N(C)C(=O)CN(C)C(=O)CN(C)C1=O` [Compound 1092] ([NMeA]I[Sar][Sar][NMePhe(4-Cl)][Sar][hPhe(4-CF3)][hNle(7,7-F2)][NMeF][NMeL]D-Pyrrolidide; lactam N-11), the IC50 worked out at 41 nM.

`CC[C@H](C)[C@@H]1NC(=O)[C@H](CC(C)C)N(C)C(=O)C[C@@H](C(=O)N2CCCCC2)N(C)C(=O)[C@H](C2CCCCC2)N(C)C(=O)C2(CCCC2)NC(=O)[C@@H]2CCCN2C(=O)[C@H](CCc2ccc(C(F)(F)F)c(Cl)c2)NC(=O)CN(C)C(=O)[C@H](CCS(C)(=O)=O)N(C)C(=O)CN(C)C(=O)CN(C)C1=O` [Compound 1094] ([NMeL]I[Sar][Sar][NMeMet(O2)][Sar][hPhe(3-Cl-4-CF3)]P[Ac5c][NMeChg][NMeD]-Piperidide; lactam N-11): the IC50 is 2.2 nM.

Regarding `CC[C@H](C)[C@@H]1NC(=O)[C@H](CC(C)C)N(C)C(=O)C[C@@H](C(=O)N2CCCCC2)N(C)C(=O)[C@H](C2CCCCC2)N(C)C(=O)C2(CCCC2)NC(=O)[C@@H]2C[C@H](c3ccccc3)CN2C(=O)[C@H](CCc2ccc(C(F)(F)F)c(Cl)c2)NC(=O)CN(C)C(=O)[C@H](CC2CCCCC2)N(C)C(=O)[C@@H]2CCCN2C(=O)CN(C)C1=O` [Compound 1096] ([NMeL]I[Sar]P[NMeCha][Sar][hPhe(3-Cl-4-CF3)][Pro(cis-4-Ph)][Ac5c][NMeChg][NMeD]-Piperidide; lactam N-11), the IC50 was found to be 2.6 nM.

For the compound `CC[C@H](C)[C@@H]1NC(=O)[C@@H]2CCCCN2C(=O)C[C@@H](C)NC(=O)[C@H](CC(C)C)N(C)C(=O)C2(CCCC2)NC(=O)[C@@H]2CCCN2C(=O)[C@H](CCc2ccc(C(F)(F)F)cc2)NC(=O)CN(C)C(=O)[C@H](CC2CCCCC2)N(C)C(=O)CN(C)C(=O)CN(C)C1=O` [Compound 1097] (cyclo([Ac5c][NMeL][d(β3hA)][Pip]I[Sar][Sar][NMeCha][Sar][hPhe(4-CF3)]P)), the concentration for half-maximal inhibition (IC50) was 230 nM.

Turning to `CC[C@H](C)[C@@H]1NC(=O)[C@H](CC(C)C)N(C)C(=O)C[C@@H](C(=O)N2CCCCC2)N(C)C(=O)[C@H](CC(C)C)NC(=O)C(C)(C)N(C)C(=O)[C@H](Cc2ccccc2OC)NC(=O)[C@H](Cc2cccc(I)c2)NC(=O)CN(C)C(=O)[C@H](Cc2ccc(C)cc2)N(C)C(=O)CN(C)C(=O)CN(C)C1=O` [Compound 1100] ([NMeL]I[Sar][Sar][NMePhe(4-Me)][Sar][Phe(3-I)][Phe(2-OMe)][NMeAib]L[NMeD]-Piperidide; lactam N-11), the IC50 was 6.3 nM.

For `CC[C@H](C)[C@@H]1NC(=O)[C@H](CC(C)C)N(C)C(=O)C[C@@H](C(=O)N2CCCCC2)N(C)C(=O)[C@H]([C@@H](C)OC)N(C)C(=O)C2(CCCC2)NC(=O)[C@@H]2CCCN2C(=O)[C@H](CCc2ccc(C(F)(F)F)c(Cl)c2)NC(=O)CN(C)C(=O)[C@H](CC2CCCCC2)N(C)C(=O)CN(C)C(=O)CN(C)C1=O` [Compound 1101] ([NMeL]I[Sar][Sar][NMeCha][Sar][hPhe(3-Cl-4-CF3)]P[Ac5c][NMeT](Me)[NMeD]-Piperidide; lactam N-11), the concentration for half-maximal inhibition (IC50) was found to be 9 nM.
